In PubChem BioAssay AID1963431 (Molecular Pharmacology Branch, DTP, NCI, 2024):
Blank lines part the entries; values can stand above or below the molecule they belong to.

System: Rh18 complex spheroid viability, percent test/control
Assay: Anticancer human tumor Rh18 cell line growth inhibition [Asc];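 note: spheroids exposed to compound for 7 days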;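 for viability, T/C: 100% = DMSO vehicle control wells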
Conditions: for IC50: curve of first compound; for viability, T/C: stronger effect = lower value
Protocol: Multicellular complex tumor spheroid response to apoptosis pathway targeting inhibitors Alrizomadlin, Pelcitoclax, and Dasminapant in combination with a variety of drugs and investigational agents in selected tumor cell lines
The MDM2 inhibitor alrizomadlin, the Bcl-2/Bcl-xL inhibitor pelcitoclax, and the IAPs inhibitor dasminapant were evaluated both individually and in combination with standard of care and investigational anticancer small molecules within a complex spheroid model of solid tumors. . Complex spheroids include a stromal component modeled by human endothelial cells (HUVEC) and fibroblasts modeled by human mesenchymal stem cells (MSCs). The concentration ranges selected for each drug and investigational agent were based upon clinically achievable concentrations if the clinical Cmax of the agent was known.
Compounds. The drugs and investigational agents: alrizomadlin (APG-115; NSC831270), pelcitoclax (APG-1252; NSC835773), dasminapant (APG-1387;NSC834197), TAK-243 (NSC785004), copanlisib (NSC809693), olaparib (NSC753686), talazoparib (NSC767125), cobimetinib (NSC 768068), eltanexor (KPT-8602, NSC 794443), abemaciclib (NSC 768073), sotorasib (NSC818433), adagrasib (NSC 831453), MRTX-1133 (NSC 836407), Iadademestat (ORY1001, NSC 806812), and RMC-4630 (NSC839698), were obtained from the NCI Developmental Therapeutics Program Chemical Repository. The FDA-approved anticancer drug set is available from the Developmental Therapeutics Program at https://dtp.cancer.gov/organization/dscb/obtaining/available plates.htm. […] The stock solutions were prepared in dimethyl sulfoxide (DMSO, Sigma-Aldrich, St. Louis, MO, cat. D2650) at 800-fold the tested concentration and stored at -70 degrees C prior to their use. All drugs and investigational agents were tested over a range starting from a high concentration at or near the clinical Cmax and decreasing in half-log increments. If the clinical Cmax for an agent had not been determined, the highest concentration tested was 10 microM.
The patient-derived cancer (PDC) cell lines include five colon adenocarcinomas: 186277-243-T-J2-PDC, 616215-338-R-J1-PDC, 439559-082-T-J2-PDC, 463943-066-T-J2-PDC, and 519858-162-T-J1-PDC; three pancreatic carcinomas: 323965-272-R-J2-PDC, 521955-158-R6-J3-PDC, and 521955-158-R2-J5-PDC; two uterine sarcomas: 327498-152-R-J2-PDC and 993429-296-R-J1-PDC; two rhabdomyosarcomas: 755483-174-R-J1-PDC and 772245-204-R-J1-PDC; two soft tissue sarcomas: 126254-015-R-J1-PDC and 494315-158-R-J1-PDC; two malignant fibrous histiocytomas: 317291-083-R-J1-PDC and 596521-263-R-J1-PDC; two breast carcinomas: 171881-019-R-J1-PDC and 885512-296-R-J2-PDC; and one ovarian carcinoma: 6556581-035-R-J-PDC were obtained from the NCI PDMR, (https://pdmr.cancer.gov). The established cell lines HSSY-2 synovial sarcoma (RRID:CVCL 8719), SYO-1 synovial sarcoma (RRID:CVCL_7146), MPNST malignant peripheral neural sheath tumor were obtained from the Sloan Kettering Institute. The following established cell lines were purchased from the American Type Culture Collection (ATCC, Manassas, VA), Sor the received from the NCI repository:, PANC-1 pancreatic carcinoma (CRL-1469, RRID:CVCL_0480), OVCAR-5 ovarian carcinoma (RRID:CVCL_1628), OVCAR-8 ovarian carcinoma (RRID:CVCL_1629), , MCF-7 breast carcinoma (CRL-12584, RRID:CVCL_0031), MDA-MB-231 breast carcinoma (CRL-12532, RRID:CVCL_0062), NCI-H1876 small cell lung carcinoma (CRL-5902, RRID:CVCL_1503), NCI-H510A small cell lung carcinoma (HTB-184, RRID:CVCL_1565), NCI-H1417 (CRL-5869, RRID:CVCL_1469), and NCI-H196 small cell lung carcinoma (CRL-5823, RRID:CVCL_1509). Dr. Peter Houghton (Greehey Children's Cancer Research Institute, University of Texas Health Science Center, San Antonio, TX) provided Rh-18 rhabdomyosarcoma (RRID:CVCL_1659). Pooled donor human umbilical vein endothelial cells (HUVEC, Lonza, cat. CC-2519) and human mesenchymal stem cells (hMSC, Lonza, cat. PT-2501) were purchased from Lonza (Walkersville, MD).
Cell Culture. […]

[1] = second compound 0.03 µM, first compound 0.00316 µM
[2] = second compound 0.03 µM, first compound 0.01 µM
[3] = second compound 0.03 µM, first compound 0.0316 µM
[4] = second compound 0.03 µM, first compound 0.1 µM
[5] = second compound 0.0949 µM, first compound 0.00316 µM
[6] = second compound 0.0949 µM, first compound 0.01 µM
[7] = second compound 0.0949 µM, first compound 0.0316 µM
[8] = second compound 0.0949 µM, first compound 0.1 µM
[9] = second compound 0.3 µM, first compound 0.00316 µM
[10] = second compound 0.3 µM, first compound 0.01 µM
[11] = second compound 0.3 µM, first compound 0.0316 µM
[12] = second compound 0.3 µM, first compound 0.1 µM
[13] = second compound 0.949 µM, first compound 0.00316 µM
[14] = second compound 0.949 µM, first compound 0.01 µM
[15] = second compound 0.949 µM, first compound 0.0316 µM
[16] = second compound 0.949 µM, first compound 0.1 µM
[17] = second compound 3 µM, first compound 0.00316 µM
[18] = second compound 3 µM, first compound 0.01 µM
[19] = second compound 3 µM, first compound 0.0316 µM
[20] = second compound 3 µM, first compound 0.1 µM

IC50 (second compound 0.03 µM): < 3160 pM
IC50 (second compound 0.0949 µM): < 3160 pM
IC50 (second compound 0.3 µM): < 3160 pM
IC50 (second compound 0.949 µM): < 3160 pM
IC50 (second compound 3 µM): < 3160 pM
SMILES: CCN1CCN(Cc2ccc(Nc3ncc(F)c(-c4cc(F)c5nc(C)n(C(C)C)c5c4)n3)nc2)CC1 + CCN1C(C(=O)NC23CCC(C(=O)O)(CC2)CC3)C(c2cccc(Cl)c2F)C2(C(=O)Nc3cc(Cl)ccc32)C12CCCCC2
viability, T/C [1]: 42.9%
viability, T/C [2]: 39.7%
viability, T/C [3]: 41.4%
viability, T/C [4]: 38.6%
viability, T/C (second compound 0.03 µM, first compound 0.316 µM): 46.5%
viability, T/C (second compound 0.03 µM, first compound 1 µM): 56.1%
viability, T/C [5]: 25.2%
viability, T/C [6]: 24.9%
viability, T/C [7]: 26.3%
viability, T/C [8]: 29.5%
viability, T/C (second compound 0.0949 µM, first compound 0.316 µM): 34.6%
viability, T/C (second compound 0.0949 µM, first compound 1 µM): 56.7%
viability, T/C [9]: 11.7%
viability, T/C [10]: 12.9%
viability, T/C [11]: 14%
viability, T/C [12]: 14.4%
viability, T/C (second compound 0.3 µM, first compound 0.316 µM): 14.2%
viability, T/C (second compound 0.3 µM, first compound 1 µM): 19.8%
viability, T/C [13]: 9.3%
viability, T/C [14]: 8.54%
viability, T/C [15]: 10.2%
viability, T/C [16]: 11.4%
viability, T/C (second compound 0.949 µM, first compound 0.316 µM): 10.6%
viability, T/C (second compound 0.949 µM, first compound 1 µM): 14.6%
viability, T/C [17]: 8.98%
viability, T/C [18]: 7.11%
viability, T/C [19]: 8.3%
viability, T/C [20]: 7.8%
viability, T/C (second compound 3 µM, first compound 0.316 µM): 8.59%
viability, T/C (second compound 3 µM, first compound 1 µM): 13.3%

IC50 (second compound 0.03 µM): < 949 pM
IC50 (second compound 0.0949 µM): < 949 pM
IC50 (second compound 0.3 µM): < 949 pM
IC50 (second compound 0.949 µM): < 949 pM
IC50 (second compound 3 µM): < 949 pM
SMILES: NC(=O)C(=Cn1cnc(-c2cc(C(F)(F)F)cc(C(F)(F)F)c2)n1)c1cncnc1 + CCN1C(C(=O)NC23CCC(C(=O)O)(CC2)CC3)C(c2cccc(Cl)c2F)C2(C(=O)Nc3cc(Cl)ccc32)C12CCCCC2
viability, T/C (second compound 0.03 µM, first compound 0.000949 µM): 39.2%
viability, T/C (second compound 0.03 µM, first compound 0.003 µM): 32%
viability, T/C (second compound 0.03 µM, first compound 0.00949 µM): 37.7%
viability, T/C (second compound 0.03 µM, first compound 0.03 µM): 32%
viability, T/C (second compound 0.03 µM, first compound 0.0949 µM): 26.6%
viability, T/C (second compound 0.03 µM, first compound 0.3 µM): 22.1%
viability, T/C (second compound 0.0949 µM, first compound 0.000949 µM): 19.4%
viability, T/C (second compound 0.0949 µM, first compound 0.003 µM): 18.7%
viability, T/C (second compound 0.0949 µM, first compound 0.00949 µM): 16.7%
viability, T/C (second compound 0.0949 µM, first compound 0.03 µM): 12.7%
viability, T/C (second compound 0.0949 µM, first compound 0.0949 µM): 9.47%
viability, T/C (second compound 0.0949 µM, first compound 0.3 µM): 4.98%
viability, T/C (second compound 0.3 µM, first compound 0.000949 µM): 9.47%
viability, T/C (second compound 0.3 µM, first compound 0.003 µM): 9.88%
viability, T/C (second compound 0.3 µM, first compound 0.00949 µM): 9.7%
viability, T/C (second compound 0.3 µM, first compound 0.03 µM): 6.03%
viability, T/C (second compound 0.3 µM, first compound 0.0949 µM): 5%
viability, T/C (second compound 0.3 µM, first compound 0.3 µM): 1.69%
viability, T/C (second compound 0.949 µM, first compound 0.000949 µM): 7.7%
viability, T/C (second compound 0.949 µM, first compound 0.003 µM): 9.36%
viability, T/C (second compound 0.949 µM, first compound 0.00949 µM): 6.31%
viability, T/C (second compound 0.949 µM, first compound 0.03 µM): 4.21%
viability, T/C (second compound 0.949 µM, first compound 0.0949 µM): 3.62%
viability, T/C (second compound 0.949 µM, first compound 0.3 µM): 1.42%
viability, T/C (second compound 3 µM, first compound 0.000949 µM): 6.6%
viability, T/C (second compound 3 µM, first compound 0.003 µM): 6.14%
viability, T/C (second compound 3 µM, first compound 0.00949 µM): 5.36%
viability, T/C (second compound 3 µM, first compound 0.03 µM): 4.12%
viability, T/C (second compound 3 µM, first compound 0.0949 µM): 2.88%
viability, T/C (second compound 3 µM, first compound 0.3 µM): 1.03%

IC50 (second compound 0.03 µM): < 316 pM
IC50 (second compound 0.0949 µM): < 316 pM
IC50 (second compound 0.3 µM): < 316 pM
IC50 (second compound 0.949 µM): < 316 pM
IC50 (second compound 3 µM): < 316 pM
SMILES: NC1CCC(NC2CC2c2ccccc2)CC1 (stereo not given) + CCN1C(C(=O)NC23CCC(C(=O)O)(CC2)CC3)C(c2cccc(Cl)c2F)C2(C(=O)Nc3cc(Cl)ccc32)C12CCCCC2
viability, T/C (second compound 0.03 µM, first compound 0.000316 µM): 31.7%
viability, T/C (second compound 0.03 µM, first compound 0.001 µM): 31.3%
viability, T/C [1]: 30.4%
viability, T/C [2]: 29.5%
viability, T/C [3]: 33.9%
viability, T/C [4]: 34.5%
viability, T/C (second compound 0.0949 µM, first compound 0.000316 µM): 19.3%
viability, T/C (second compound 0.0949 µM, first compound 0.001 µM): 23.4%
viability, T/C [5]: 18.8%
viability, T/C [6]: 19%
viability, T/C [7]: 19.6%
viability, T/C [8]: 20.9%
viability, T/C (second compound 0.3 µM, first compound 0.000316 µM): 11.1%
viability, T/C (second compound 0.3 µM, first compound 0.001 µM): 13.3%
viability, T/C [9]: 13%
viability, T/C [10]: 13.3%
viability, T/C [11]: 12.9%
viability, T/C [12]: 14.4%
viability, T/C (second compound 0.949 µM, first compound 0.000316 µM): 11.6%
viability, T/C (second compound 0.949 µM, first compound 0.001 µM): 10.8%
viability, T/C [13]: 9.55%
viability, T/C [14]: 8.96%
viability, T/C [15]: 10.3%
viability, T/C [16]: 11.3%
viability, T/C (second compound 3 µM, first compound 0.000316 µM): 11%
viability, T/C (second compound 3 µM, first compound 0.001 µM): 10.2%
viability, T/C [17]: 11.8%
viability, T/C [18]: 10.1%
viability, T/C [19]: 8.61%
viability, T/C [20]: 9.99%
